Molecular target: Recombinant full length human PFKFB3 (Homo sapiens, UniProt Q16875)
Experiment: PFKFB3 kinase activity assay (ADP production, ADP-Glo)

Recombinant full length human PFKFB3, sequence (Q16875 whole entry): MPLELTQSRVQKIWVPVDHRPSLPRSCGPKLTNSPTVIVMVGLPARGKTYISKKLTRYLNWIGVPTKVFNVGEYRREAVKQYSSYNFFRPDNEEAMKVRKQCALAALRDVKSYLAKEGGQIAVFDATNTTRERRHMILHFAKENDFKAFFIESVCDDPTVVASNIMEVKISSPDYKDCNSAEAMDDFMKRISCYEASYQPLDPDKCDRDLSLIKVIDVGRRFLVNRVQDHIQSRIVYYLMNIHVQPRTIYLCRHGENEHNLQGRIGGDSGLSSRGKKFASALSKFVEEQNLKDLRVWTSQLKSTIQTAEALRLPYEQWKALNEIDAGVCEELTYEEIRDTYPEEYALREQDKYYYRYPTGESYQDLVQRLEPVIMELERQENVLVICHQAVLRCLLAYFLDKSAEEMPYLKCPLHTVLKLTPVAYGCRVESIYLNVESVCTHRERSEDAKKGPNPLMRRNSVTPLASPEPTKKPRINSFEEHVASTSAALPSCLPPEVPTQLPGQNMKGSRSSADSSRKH

IC50 | Compound
2 to 5 µM | O=C(O)c1ccc(-c2cccs2)cc1N1C(=O)c2ccc(-c3c[nH]nn3)cc2C1=O [Example 56]
< 20 µM | CC(C)(C)OC(=O)c1ccc(-c2ccc(F)c(F)c2)cc1N1Cc2ccc(-c3c[nH]nn3)cc2C1=O [Compound 117, 3′,4′-Difluoro-3-[1-oxo-6-(1H-[1,2,3]triazol-4-yl)-1,3-dihydro-isoindol-2-yl]-biphenyl-4-carboxylic acid tert-butyl ester]
< 0.5 µM | O=C(O)c1ccc(-c2ccc(F)cc2F)cc1N1C(=O)c2ccc(-c3c[nH]nn3)cc2C1=O [Example 51]
0.5 to 2 µM | O=C(O)c1ccc(-c2ccc(F)c(F)c2)cc1N1Cc2ccc(-c3nn[nH]c3C(=O)c3ccccc3)cc2C1=O [compound 162, 3-(6-(5-benzoyl-1H-1,2,3-triazol-4-yl)-1-oxoisoindolin-2-yl)-3′,4′-difluorobiphenyl-4-carboxylic acid]
< 0.5 µM | Cn1cncc1-c1ccc(N2C(=O)c3ccc(C(=O)O)cc3C2=O)c(C(=O)O)c1 [Compound 76, 2-[2-Carboxy-4-(3-methyl-3H-imidazol-4-yl)-phenyl]-1,3-dioxo-2,3-dihydro-1H-isoindole-5-carboxylic Acid]
2 to 5 µM | O=C(O)c1cc(Cl)c(-c2cnn[nH]2)cc1NC(=O)c1cc(-c2ccc(F)c(F)c2)ccc1C(=O)O [Example 20, 3-((2-carboxy-4-chloro-5-(1H-1,2,3-triazol-5-yl)phenyl)carbamoyl)-3′,4′-difluoro-[1,1′-biphenyl]-4-carboxylic acid]
< 20 µM | CC(C)OC(=O)c1ccc(-c2ccc(F)c(F)c2)cc1N1Cc2ccc(CO)cc2C1=O [compound 156, isopropyl 3′,4′-difluoro-3-(6-(hydroxymethyl)-1-oxoisoindolin-2-yl)biphenyl-4-carboxylate]
5 to 20 µM | COc1ccc(-c2c(C)sc(N3C(=O)c4ccc(C(=O)NS(=O)(=O)c5ccccc5)cc4C3=O)c2C#N)cc1 [Example 13, N-{2-[3-Cyano-4-(4-methoxyphenyl)-5-methylthiophen-2-yl]-1,3-dioxo-2,3-dihydro-1H-isoindole-5-carbonyl}-benzenesulfonamide]
2 to 5 µM | O=C1c2ccc(-c3c[nH]nn3)cc2C(=O)N1c1cc(-c2ccccc2)cnc1O [Compound 83, 2-(2-Hydroxy-5-phenylpyridin-3-yl)-5-(1H-[1,2,3]triazol-4-yl)-isoindole-1,3-dione]
< 0.5 µM | Cc1ccc(-c2ccc(C(=O)O)c(N3C(=O)c4ccc(C(=O)O)cc4C3=O)c2)cc1 [Compound 141, 2-(4-Carboxy-4′-methyl[1,1′-biphenyl]-3-yl)-1,3-dioxo-2,3-dihydro-1H-isoindole-5-carboxylic acid]
< 20 µM | CN1CCN(CCOC(=O)c2ccc(-c3ccc(F)c(F)c3)cc2N2Cc3ccc(CO)cc3C2=O)CC1 [compound 155, 2-(4-methylpiperazin-1-yl)ethyl 3′,4′-difluoro-3-(6-(hydroxymethyl)-1-oxoisoindolin-2-yl)biphenyl-4-carboxylate]
< 20 µM | COC(=O)c1ccc(-c2ccc(F)c(F)c2)cc1N1Cc2ccc(C(=O)NS(C)(=O)=O)cc2C1=O [Compound 105, 3′,4′-Difluoro-3-(6-methanesulfonylaminocarbonyl-1-oxo-1,3-dihydroisoindol-2-yl)biphenyl-4-carboxylic acid methyl ester]
< 0.5 µM | O=C(O)c1cc(-c2ccccc2)ccc1N1C(=O)c2ccc(-c3nnn[nH]3)cc2C1=O [Compound 94, 4-[1,3-Dioxo-5-(1H-tetrazol-5-yl)-1,3-dihydroisoindol-2-yl]biphenyl-3-carboxylic Acid]
2 to 5 µM | O=C(O)c1cc(-c2ccccc2)ccc1N1C(=O)c2ccc(-c3cn(Cc4ccccc4)nn3)cc2C1=O [Example 29]
< 0.5 µM | CC1(C)CCC(c2ccc(C(=O)O)c(NC(=O)c3cc(C(=O)O)c(F)cc3C(=O)O)c2)CC1 [Example 64, 2-{[2-carboxy-5-(4,4-dimethylcyclohexyl)phenyl]carbamoyl}-5-fluorobenzene-1,4-dicarboxylic acid]
< 20 µM | CC(=O)Nc1ccc2c(c1)C(=O)N(c1cc(-c3ccc(F)c(F)c3)ccc1C(=O)O)C2 [Compound 130, 3-(6-Acetylamino-1-oxo-1,3-dihydroisoindol-2-yl)-3′,4′-difluoro-biphenyl-4-carboxylic Acid]
< 20 µM | CCOC(=O)c1ccc(-c2ccc(F)c(F)c2)cc1N1Cc2ccc(CO)cc2C1=O [compound 159, ethyl 3′,4′-difluoro-3-(6-(hydroxymethyl)-1-oxoisoindolin-2-yl)biphenyl-4-carboxylate]
2 to 5 µM | CS(=O)(=O)NC(=O)c1ccc2c(c1)C(=O)N(c1cc(-c3ccc(F)c(F)c3)ccc1C(=O)O)C2 [Compound 106, 3′,4′-Difluoro-3-(6-methanesulfonylaminocarbonyl-1-oxo-1,3-dihydroisoindol-2-yl)biphenyl-4-carboxylic Acid]
0.5 to 2 µM | O=C(O)c1ccc(C(=O)O)c(C(=O)Nc2cc(-c3ccc(F)cc3)ccc2C(=O)O)c1 [Example 1, 2-({4-carboxy-4′-fluoro-[1,1′-biphenyl]-3-yl}carbamoyl)benzene-1,4-dicarboxylic acid]
< 0.5 µM | O=C(O)c1ccc2c(c1)C(=O)N(c1cc(-c3cc(F)c(F)cc3F)ccc1C(=O)O)C2=O [Compound 140, 2-(4-Carboxy-2′,4′,5′-trifluoro[1,1′-biphenyl]-3-yl)-1,3-dioxo-2,3-dihydro-1H-isoindole-5-carboxylic Acid]

IC50 | Compound
< 20 µM | O=C1c2ccc(-c3c[nH]nn3)cc2C(=O)N1c1ccc(-c2ccccc2)nc1O [Compound 89, 2-(2-Hydroxy-6-phenylpyridin-3-yl)-5-(1H-[1,2,3]triazol-4-yl)-isoindole-1,3-dione]
5 to 20 µM | Cc1cc(-c2ccccc2)cc(N2C(=O)c3ccc(-c4c[nH]nn4)cc3C2=O)n1 [Compound 88, 2-(6-Methyl-4-phenylpyridin-2-yl)-5-(1H-[1,2,3]triazol-4-yl)-isoindole-1,3-dione]
< 20 µM | CS(=O)(=O)NC(=O)c1ccc2c(c1)C(=O)N(c1cc(-c3ccc(F)c(F)c3)ccc1C(N)=O)C2 [Compound 107, 3′,4′-Difluoro-3-(6-methanesulfonylaminocarbonyl-1-oxo-1,3-dihydroisoindol-2-yl)biphenyl-4-carboxylic acid amide]
< 20 µM | COC(=O)c1cc(-c2ccccc2)ccc1N1C(=O)c2ccc(C(=O)NS(=O)(=O)c3ccccc3)cc2C1=O [compound 152, methyl 4-(1,3-dioxo-5-(phenylsulfonylcarbamoyl)isoindolin-2-yl)biphenyl-3-carboxylate]
5 to 20 µM | COc1ccc(-c2c(C)sc(NC(=O)c3cc(C(=O)O)ccc3C(=O)O)c2C#N)cc1 [Example 29, 2-{[3-cyano-4-(4-methoxyphenyl)-5-methylthiophen-2-yl]carbamoyl}benzene-1,4-dicarboxylic acid]
< 20 µM | CC(C)OC(=O)c1ccc(-c2ccc(F)c(F)c2)cc1N1Cc2ccc(C(=O)NS(C)(=O)=O)cc2C1=O [Compound 125, 3′,4′-Difluoro-3-(6-methanesulfonylaminocarbonyl-1-oxo-1,3-dihydro-isoindol-2-yl)-biphenyl-4-carboxylic acid isopropyl ester]
< 20 µM | COC(=O)c1ccc2c(c1)C(=O)N(c1cc(-c3ccc(F)c(F)c3)ccc1C(=O)OC)C2 [Compound 127, 2-(3′,4′-Difluoro-4-methoxycarbonylbiphenyl-3-yl)-3-oxo-2,3-dihydro-1H-isoindole-5-carboxylic acid methyl ester]
< 0.5 µM | CCOC(=O)c1ccc(-c2ccc(Cl)cc2Cl)cc1NC(=O)c1cc(O)c(C(=O)O)cc1C(=O)O [Example 55, 4-{[2′,4′-dichloro-4-(ethoxycarbonyl)-[1,1′-biphenyl]-3-yl]carbamoyl}-6-hydroxybenzene-1,3-dicarboxylic acid]
< 20 µM | COC(=O)c1cc(-c2ccccc2)ccc1N1C(=O)c2ccc(-c3c[nH]nn3)cc2C1=O [Example 33]
5 to 20 µM | O=C(O)c1ccc2c(c1)C(=O)N(c1cc(-c3ccccc3)ccc1CO)C2=O [Example 11]
0.5 to 2 µM | CNCCOC(=O)c1cc(-c2c[nH]cn2)ccc1N1C(=O)c2ccc(C(=O)O)cc2C1=O [Compound 77, 2-[4-(1H-Imidazol-4-yl)-2-(2-methylaminoethoxycarbonyl)-phenyl]-1,3-dioxo-2,3-dihydro-1H-isoindole-5-carboxylic Acid]
< 0.5 µM | O=C(O)c1ccc2c(c1)C(=O)N(c1cc(-c3cccc(F)c3)ccc1C(=O)O)C2=O [Example 46]
< 0.5 µM | O=C(O)c1ccc2c(c1)C(=O)N(c1cc(-c3ccc(Cl)cc3Cl)ccc1C(=O)O)C2=O [Compound 142, 2-(4-Carboxy-2′,4′-dichloro[1,1′-biphenyl]-3-yl)-1,3-dioxo-2,3-dihydro-1H-isoindole-5-carboxylic acid]
< 0.5 µM | CN(C)CCOC(=O)c1ccc(-c2ccccc2)cc1N1C(=O)c2ccc(-c3nnn[nH]3)cc2C1=O [Compound 97, 3-[1,3-Dioxo-5-(1H-tetrazol-5-yl)-1,3-dihydroisoindol-2-yl]biphenyl-4-carboxylic acid 2-dimethylamino-ethyl ester]
5 to 20 µM | CCCCOC(=O)c1ccc2c(c1)C(=O)N(c1cc(-c3ccc(F)c(F)c3)ccc1C(=O)O)C2 [Compound 128, 2-(4-Carboxy-3′,4′-difluoro-biphenyl-3-yl)-3-oxo-2,3-dihydro-1H-isoindole-5-carboxylic acid butyl ester]
< 0.5 µM | O=C(O)c1cc(-c2c[nH]cn2)ccc1N1C(=O)c2ccc(-c3c[nH]nn3)cc2C1=O [Example 60]
< 20 µM | O=C(OCCN1CCOCC1)c1cc(-c2ccccc2)ccc1N1C(=O)c2ccc(-c3c[nH]nn3)cc2C1=O [Compound 80, 4-[1,3-Dioxo-5-(1H-[1,2,3]triazol-4-yl)-1,3-dihydroisoindol-2-yl]biphenyl-3-carboxylic acid 2-morpholin-4-yl-ethyl ester]
2 to 5 µM | O=C(O)c1ccc2c(c1)C(=O)N(c1ccc(-c3ccccc3)cc1CO)C2=O [Example 4]
< 0.5 µM | O=C(O)c1cc2c(cc1Br)C(=O)N(c1cc(-c3ccc(F)c(F)c3)ccc1C(=O)O)C2=O [compound 169, 6-bromo-2-(4-carboxy-3′,4′-difluoro[1,1′-biphenyl]-3-yl)-1,3-dioxo-2,3-dihydro-1H-isoindole-5-carboxylic acid]
